Laboratory results: patent US20110166206A1, “UBIQUILIN REGULATION OF PRESENILIN ENDOPROTEOLYSIS, AND SUPPRESSION OF POLYGLUTAMINE-INDUCED TOXICITY IN CELLS” (UNIVERSITY OF MARYLAND BIOTECHNOLOGY INSTITUTE, priority 2005, published 2011)

System: HeLa cells
Assay: Co-transfection of ubiquilin-1 cDNA with GFP-Htt Exon 1 Q74 construct in HeLa cells
Assay type: cell-based
Procedure: FIG. 9. […] Immunoblots showing GFP-immunoreactivity after biochemical fractionation of parallel sets of HeLa cells transfected with the constructs described in (A) into Triton-X100 soluble and pellet fractions. • D. Densitometric quantification of anti-GFP immunoreactive bands depicting the relative amount of GFP-irnmunoreaction found in the pellet compared to that the total (soluble and pellet fractions combined).
HeLa cells were grown in DME supplemented with 10% FBS. Cells were transiently transfected with plasmid DNA using by calcium phosphate coprecipitation. Stable HeLa cell lines were isolated by cotransfection of EGFP expression constructs with a pNeo plasmid and selection with G418. Stable cell lines were identified by GFP-fluorescence.
Cell death was monitored either through examination of the nuclear morphology observed after Hoechst 33342 (1 μg/ml) staining, or through detecting the membrane selective permeability following 3 μM of propidium iodide (PI) staining. Terminal deoxynucleotidyl Transferase Biotin-dUTP Nick End Labeling (TUNEL) staining was performed with DeadEnd Colorimetric TUNEL staining kits purchased from Promega. For detecting caspase-3 activation, two methods were used. Cell lysates were separated by SDS-PAGE and probed with an antibody against the cleaved substrate for caspase-3. Alternatively, caspase activity was also detected by flurogenic techniques by incubating the cell lysates with a flurogenic caspase-3 substrate, AC-DEVD-AMC in a 96-well plate. After incubation, the cleaved free AMC was scanned by a fluorescence multi-well plate reader (SOSTmax, Sunnyvale, CA) with an excitation at 380 nm (excitation) and emission at 460 nm (emission).
Having established that expression of GFP-tagged Htt-Exon1-polyglutamine fusion proteins in HeLa cells caused a polyglutamine-number dependent increase in intracellular inclusion formation, Triton-X100 insolubility, and cell death, it was necessary to examined what effect overexpression of ubiquilin-1 has on these properties. […]

Substance: UBQLN1: PS-interacting protein ubiquilin-1, overexpressed in cells from a cDNA expression plasmid
- GFP-HttPolyQ74 fusion protein accumulation (anti-GFP immunoblot): dose-dependent increase in accumulation
- Triton-X100 solubility of GFP-HttPolyQ74 fusion protein (biochemical fractionation): a greater proportion of the GFP-HttPolyQ74-fusion protein remained soluble
- cell death (increasing amounts of ubiquilin-1 cDNA vs GFP-Htt Exon-1PolyQ74 alone): dose-dependent decrease in cell death
